Read-outs that look alike come from different tables or passages of the source.
Legend:
[1] = test system: subject with androgenetic alopecia; test: Treatment of androgenetic alopecia; format: in vivo, human; conditions: person, 14 months in total
Description: A person was treated with varying doses (2 and 4 mg) taken in the morning or evening, for periods of 2 weeks for each dose and continued with the optimal dose for 14 months in total.

subjects with xerostomia = test: Xerostomia treatment; format: in vivo, human; conditions: Subject 1 (person twelve), 2 mg
Description: Subject 1 (person twelve) and Subject 2 (person three) were treated with varying doses (1, 2, 3, 4, 5 and 10 mg) taken in the morning or evening, for periods of 2 weeks for each dose then continued on optimal dose for 15 months in total.

[2] = test system: subjects with chronic rheumatic pain; test: Treatment of chronic rheumatic or fibromyalgia pain; format: in vivo, human
Description: Subject 1 was treated with 2 mg taken once daily with the first daily dose of oxycodone. Subject 2 (person twelve) was treated with 2 mg or 5 mg taken once daily, in conjunction with oxycodone. Subject 3 (person five) was treated with 2 mg, 5 mg or 10 mg taken once daily with PERCOCET.

[3] = Solubility of dipyridamole in propylene glycol / water; format: physicochemical
Text: (§1) Solubility of a compound is known to increase absorption and efficacy. In other exemplary embodiments of the invention, liquid formulations are provided in gel-caps.

[4] = test system: subjects with erectile dysfunction; test: Erectile dysfunction treatment with low dose oral dipyridamole; format: in vivo, human
Text: Some subjects had either failed or could not tolerate conventional treatments.

[5] = test system: human subjects with intractable insomnia; test: Insomnia treatment with low dose oral dipyridamole; format: in vivo
[6] = test system: subject with prostate cancer; test: Prostate cancer treatment; format: in vivo, human; conditions: person four, daily dose of 2 mg, 3 month period; from 19.1
Description: person four was treated with 2 mg taken in the afternoon or evening and followed for 3 months.

[7] = Storage stability of dipyridamole dissolved in propylene glycol; format: physicochemical; conditions: 1 year of storage at room temperature
Text: as §1

[8] = test system: subjects with treatment-refractory insomnia; test: Dipyridamole in combination with melatonin for insomnia; format: in vivo, human
Description: The melatonin dose ranged between 0.25 mg and 10 mg per pill.

[9] = test system: subject with cancer-related bone pain; test: Treatment of cancer-related bone pain; format: in vivo, human; conditions: person, 2 mg in the early evening
Description: A person was treated with 2 mg taken in the early evening hours. The subject reported resolution of bone pain related to metastatic prostate cancer to the cervical spine within 4 days. The subject was previously dependent on the daily use of opiate pain medications for the past 6 months.

[10] = cited from earlier work
[11] = test system: subjects with frequent viral infections (with upper respiratory symptoms); test: Prevention and treatment of viral disease; format: in vivo, human
Description: Subject 1 (person eight), Subject 2 (person two), Subject 3, and Subject 4 were treated with varying doses (2, 5 and 10 mg) taken at any time during the day, for periods of 2 weeks for each dose, and thereafter continuously for up to 2 years.

subjects with CLL = test: Treatment of chronic lymphocytic leukemia; format: in vivo, human; conditions: Subject 1 (person eleven), 2 mg, one month; from 25,000 (rising by 10%/month)
[12] = test system: subjects with keratoconjunctivitis sicca; test: Keratoconjunctivitis sicca treatment with low dose oral dipyridamole; format: in vivo, human; conditions: Subject 1 (person thirteen), 2 mg
Description: Each of the three subjects was unresponsive to cyclosporine eye drops or to lubricating drops which are the conventional treatments.
Subject 1 (person thirteen), Subject 2 (person twelve) and Subject 3 (person twelve) were treated with varying doses (2, 5 and 10 mg) taken before sleep or in the afternoon/evening hours, for initial periods of up to 2 weeks for each dose to establish optimal dosing, and followed for up to 12 months in total.

[13] = test system: subject with recurrent, non-streptococcal, non-specific sore throat; test: Treatment of non-specific recurrent sore throat; format: in vivo, human; conditions: person, 29 kg, 1 mg/day before sleep, followed 11 months
Description: A person was treated with 1 mg taken before sleep and followed for 11 months in total. […] One mg dose was given based on a weight of 29 kg.

[14] = IV or oral 20-50 mg, followed up to 60 hours

OCCN(CCO)c1nc(N2CCCCC2)c2nc(N(CCO)CCO)nc(N3CCCCC3)c2n1 [dipyridamole]
optimal dose for expansion of hairline, thicker hair, decreased hair loss and increased growth of chest and abdominal hair [1]: 4 mg
duration of occasionally recurring symptoms (subjects with xerostomia): 2 to 3 h
reduction in severity of occasionally recurring symptoms (subjects with xerostomia; recurrence once every few weeks): 70%
outcome on pain related to chronic fibromyalgia ([2]; Subject 1, 2 mg once daily added to oxycodone): complete relief of pain
time to complete weaning off oxycodone while maintaining pain relief ([2]; Subject 2 (person twelve), 2 mg): ≤ 3 months
pain relief at 10 mg ([2]; Subject 2 (person twelve), 10 mg instead of 2 mg): negligible pain relief
duration of low dose dipyridamole use after which Percocet was weaned off ([2]; Subject 3 (person five), 2 mg): 2 months
solubility in propylene glycol ([3]; propylene glycol): ≥ 10 mg per ml
solubility in propylene glycol ([3]; pure propylene glycol, dissolved at 5, 10 and 20 mg/mL): surprisingly soluble in propylene glycol
solubility in water ([3]; water): difficult to dissolve in water
optimal dose for complete restoration of erectile function ([4]; Subject 1, daily at night): 2 mg
time to restoration of erectile function ([4]; Subject 3 (person seven), 2 mg): ≤ 10 days
effect on erectile function at 10 mg daily ([4]; Subject 3 (person seven), 10 mg daily): the beneficial effect was lost
time to resolution of erectile dysfunction ([4]; Subject 4, 2 mg): ≤ 5 days
time to resolution of erectile dysfunction ([4]; Subject 5, 2 mg): ≤ 2 weeks
effect of 10 mg compared with 5 mg ([4]; Subject 5, 10 mg): did not produce the same benefit as 5 mg
effect when taken with food ([4]; Subject 5, taken with food): 2 mg was not that effective but 5 mg was
effect on insomnia at 10 mg or more (conclusion of example) ([5]; 10 mg or more, 4 subjects): little or no effect
benefit on insomnia at 10 mg ([5]; Subject 1, 10 mg): negligible benefit compared to lower doses
optimal dose for ensuring an excellent night's sleep ([5]; Subject 1, oral, before sleep): 2 mg
duration of undisturbed sleep ([5]; Subject 2 (person nine), 2 mg): 6-8 hours per night
optimal dose for ensuring an excellent, undisturbed sleep ([5]; Subject 2 (person nine), oral, before sleep): 2 mg
PSA (Prostate Specific Antigen) after treatment [6]: 14
potency after storage [7]: maintained its potency
prior response of insomnia to low dose dipyridamole alone ([8]; six subjects, 1 or 2 mg daily): somewhat responsive
time to resolution of bone pain related to metastatic prostate cancer to the cervical spine [9]: ≤ 4 days
peak plasma concentration at steady state ([10]; 75 mg q.i.d.): 1.54 µg/mL
trough plasma concentration at steady state ([10]; 75 mg q.i.d.): 0.269 µg/mL
geometric mean peak plasma concentration at steady state ([10]; 75 mg t.d.s.): 1.86 µg/mL
geometric mean trough plasma concentration at steady state ([10]; 75 mg t.d.s.): 0.13 µg/mL
peak plasma concentration at steady state ([10]; 100 mg q.i.d.): 2.36 µg/mL
trough plasma concentration at steady state ([10]; 100 mg q.i.d.): 0.432 µg/mL
half-life, first phase of tri-exponential plasma decline ([10]; IV only, 20-50 mg, followed up to 60 hours): 5 min
half-life, second phase of tri-exponential plasma decline [10, 14]: 53 min
half-life, third phase of tri-exponential plasma decline [10, 14]: 600 to 720 min
time to peak plasma levels ([10]; humans, following oral administration): 1 to 3 h
distribution half-life ([10]; humans, intravenous (IV) administration): about 25 minutes
distribution half-life ([10]; humans, oral administration): about 3 hours
dose range in which dose linearity was demonstrated ([10]; single dose administration): 25 to 150 mg
incidence of viral infections under treatment ([11]; Subject 3, 2 mg once daily, previously 5-6 times yearly): 1-2 times yearly
time to resolution of infection symptoms ([11]; Subject 3, 2 mg twice daily, previously 7-10 days): 1 to 2 days
effect of 10 mg dose on viral infection ([11]; Subject 3, 10 mg, one occasion): failed to deliver the same benefit as the 2 mg dose
optimal dose for reducing incidence of viral infections ([11]; Subject 3, once daily): 2 mg
recurrence of infections ([11]; Subject 4, 2 mg daily for 10 months, previously every 3-4 months): without any recurrence of infections
time to complete relief of symptoms of severe viral infection ([11]; Subject 4, 2 mg twice daily, upper respiratory symptoms plus viral conjunctivitis): 1 to 2 days
white blood cell count after treatment (subjects with CLL): 18,000
outcome on dry eye symptoms [12]: complete relief of dry eye symptoms
outcome on recurrent sore throat [13]: complete resolution of recurrent sore throat

COc1ccc2[nH]cc(CCNC(C)=O)c2c1 [melatonin]
prior response of insomnia to melatonin alone ([8]; six subjects with treatment-refractory insomnia): unresponsive
